Laboratory results from ChEMBL document CHEMBL1201862, “PubChem BioAssay data set” (2004).
Values belong to the compound of their own block, whether it stands above or below them. Calls of active or inactive are those of the source.

Assays:
[1] = molecular target: Eukaryotic translation initiation factor 4H (Homo sapiens, UniProt Q15056); assay: human eIF4H binding inhibitors, primary screen, translation initiation inhibitor project, biochemical, uHTS, fluorescence polarization (AID 2012)
[2] = molecular target: Polyadenylate-binding protein 1 (Homo sapiens, UniProt P11940); assay: PABP poly(A) RNA binding inhibitors, primary screen, biochemical, fluorescence polarization, uHTS (AID 2014)
[3] = cytotoxicity in HEK-293T cells, dose response, cytotoxicity control for BCR NF-kB inhibitor project, luminescence, B-cell screen hits (AID 489021); format: functional, cell-based;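 note: HEK-293T cells carrying an NF-kB luciferase reporter; cells exposed to compound for about 14 hours before viability readout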
[4] = Luminescence Cell-Based Dose Confirmation HTS to Identify Inhibitors of Platelet Dense Granule Release. [Related pubchem assays: 1663 (Primary HTS), 1678 (Summary of Project)]; format: functional
[5] = molecular target: Luciferin 4-monooxygenase (Photinus pyralis, UniProt P08659); assay: firefly luciferase enzyme inhibitors, dose response, biochemical, luminescence (AID 1891)
[6] = molecular target: T1, Heat shock factor protein 1 (Mus musculus, UniProt P38532); assay: HSF1 potentiators in luciferase reporter cells, confirmation, cell-based, NIH3T3, luminescence, dose retest (AID 435004); format: functional;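 note: stress induced by proteasome inhibitor MG132 added 30 min after compound; luciferase reporter driven by HSF1 response element in NIH3T3 cells; actives raise luminescence as potentiators of the MG132 stress response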
T1 sequence (P38532 whole entry): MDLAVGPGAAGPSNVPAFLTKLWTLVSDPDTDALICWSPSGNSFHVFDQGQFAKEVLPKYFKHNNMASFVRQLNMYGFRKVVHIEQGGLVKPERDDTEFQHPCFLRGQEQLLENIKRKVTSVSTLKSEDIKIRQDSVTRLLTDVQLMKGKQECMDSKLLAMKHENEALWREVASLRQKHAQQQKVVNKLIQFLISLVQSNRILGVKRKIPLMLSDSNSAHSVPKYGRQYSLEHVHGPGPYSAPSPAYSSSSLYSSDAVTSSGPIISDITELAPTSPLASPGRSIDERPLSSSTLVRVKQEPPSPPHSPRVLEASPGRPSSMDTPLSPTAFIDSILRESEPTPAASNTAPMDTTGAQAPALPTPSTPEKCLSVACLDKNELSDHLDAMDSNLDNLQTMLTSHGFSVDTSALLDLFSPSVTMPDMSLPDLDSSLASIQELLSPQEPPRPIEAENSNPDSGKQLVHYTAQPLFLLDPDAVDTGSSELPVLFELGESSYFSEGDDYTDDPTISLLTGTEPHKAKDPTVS

SUMO-activating enzyme [7] = molecular target: T2, SUMO-activating enzyme (Homo sapiens, UniProt Q9UBT2); assay: inhibitors of in vitro SUMOylation cascade, primary screen, biochemical, HTRF, uHTS (AID 2006); format: protein-complex assay
T2 sequence (Q9UBE0 whole entry): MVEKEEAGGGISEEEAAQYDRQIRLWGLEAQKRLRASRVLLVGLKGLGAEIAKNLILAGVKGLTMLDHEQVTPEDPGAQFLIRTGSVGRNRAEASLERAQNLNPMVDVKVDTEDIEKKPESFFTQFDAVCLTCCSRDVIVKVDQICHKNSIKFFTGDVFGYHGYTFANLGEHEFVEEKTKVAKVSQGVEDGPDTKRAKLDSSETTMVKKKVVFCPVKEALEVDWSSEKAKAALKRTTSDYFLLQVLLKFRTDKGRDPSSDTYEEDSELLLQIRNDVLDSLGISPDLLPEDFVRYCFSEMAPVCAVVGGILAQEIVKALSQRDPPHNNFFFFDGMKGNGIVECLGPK
T2 sequence (Q9UBT2 whole entry): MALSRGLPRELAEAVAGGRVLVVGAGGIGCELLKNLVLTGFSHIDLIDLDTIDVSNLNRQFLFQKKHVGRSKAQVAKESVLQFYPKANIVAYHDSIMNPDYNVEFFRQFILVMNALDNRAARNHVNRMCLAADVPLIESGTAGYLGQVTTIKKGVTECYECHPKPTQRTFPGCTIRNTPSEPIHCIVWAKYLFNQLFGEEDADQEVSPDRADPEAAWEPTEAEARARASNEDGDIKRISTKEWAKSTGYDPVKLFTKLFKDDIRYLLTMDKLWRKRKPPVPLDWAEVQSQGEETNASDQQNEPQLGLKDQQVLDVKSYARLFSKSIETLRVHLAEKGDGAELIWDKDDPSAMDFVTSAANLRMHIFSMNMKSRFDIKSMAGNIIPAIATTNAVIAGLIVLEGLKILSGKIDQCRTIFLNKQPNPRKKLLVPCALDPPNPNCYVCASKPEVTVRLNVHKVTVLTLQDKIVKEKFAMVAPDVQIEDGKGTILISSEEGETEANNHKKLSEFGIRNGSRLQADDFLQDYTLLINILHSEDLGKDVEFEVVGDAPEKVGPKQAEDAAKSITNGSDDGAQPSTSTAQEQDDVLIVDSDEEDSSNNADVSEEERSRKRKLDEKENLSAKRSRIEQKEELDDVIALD

SUMO-activating enzyme [8] = molecular target: T2, SUMO-activating enzyme; assay: SUMOylation inhibitor hit validation, confirmation, SUMOylation inhibitor project, biochemical, AlphaScreen (AID 2018); format: functional
[9] = molecular target: DNA damage-inducible transcript 3 protein (Mus musculus, UniProt P35639); format: functional, Cricetulus griseus
DNA damage-inducible transcript 3 protein, sequence (P35639 whole entry): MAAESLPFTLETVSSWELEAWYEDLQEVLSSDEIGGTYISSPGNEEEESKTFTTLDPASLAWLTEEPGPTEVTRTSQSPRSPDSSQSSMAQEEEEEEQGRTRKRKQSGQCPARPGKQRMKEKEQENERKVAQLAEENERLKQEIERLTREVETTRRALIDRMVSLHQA

X-box-binding protein 1 = X-box-binding protein 1 (Homo sapiens, UniProt P17861); format: functional, Cricetulus griseus;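 note: confirmatory dose-response counter-screen serving a CHOP assay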
HEK293 [10] = assay: cells; format: functional, cell-based; conditions: Homo sapiens
HEK293 [11] = assay: NOD1 signaling inhibitors, primary screen, cell-based, luminescence, uHTS (AID 1578); format: functional; conditions: Homo sapiens
HEK293 [12] = assay: cells; format: functional, cell-based; conditions: Homo sapiens; remark: listed apart in the source
[13] = molecular target: T3, Nucleotide-binding oligomerization domain-containing protein 2 (Homo sapiens, UniProt Q9HC29); assay: PubChem AID 2334; format: functional
T3 sequence (Q9HC29 whole entry, the tested form may be a part): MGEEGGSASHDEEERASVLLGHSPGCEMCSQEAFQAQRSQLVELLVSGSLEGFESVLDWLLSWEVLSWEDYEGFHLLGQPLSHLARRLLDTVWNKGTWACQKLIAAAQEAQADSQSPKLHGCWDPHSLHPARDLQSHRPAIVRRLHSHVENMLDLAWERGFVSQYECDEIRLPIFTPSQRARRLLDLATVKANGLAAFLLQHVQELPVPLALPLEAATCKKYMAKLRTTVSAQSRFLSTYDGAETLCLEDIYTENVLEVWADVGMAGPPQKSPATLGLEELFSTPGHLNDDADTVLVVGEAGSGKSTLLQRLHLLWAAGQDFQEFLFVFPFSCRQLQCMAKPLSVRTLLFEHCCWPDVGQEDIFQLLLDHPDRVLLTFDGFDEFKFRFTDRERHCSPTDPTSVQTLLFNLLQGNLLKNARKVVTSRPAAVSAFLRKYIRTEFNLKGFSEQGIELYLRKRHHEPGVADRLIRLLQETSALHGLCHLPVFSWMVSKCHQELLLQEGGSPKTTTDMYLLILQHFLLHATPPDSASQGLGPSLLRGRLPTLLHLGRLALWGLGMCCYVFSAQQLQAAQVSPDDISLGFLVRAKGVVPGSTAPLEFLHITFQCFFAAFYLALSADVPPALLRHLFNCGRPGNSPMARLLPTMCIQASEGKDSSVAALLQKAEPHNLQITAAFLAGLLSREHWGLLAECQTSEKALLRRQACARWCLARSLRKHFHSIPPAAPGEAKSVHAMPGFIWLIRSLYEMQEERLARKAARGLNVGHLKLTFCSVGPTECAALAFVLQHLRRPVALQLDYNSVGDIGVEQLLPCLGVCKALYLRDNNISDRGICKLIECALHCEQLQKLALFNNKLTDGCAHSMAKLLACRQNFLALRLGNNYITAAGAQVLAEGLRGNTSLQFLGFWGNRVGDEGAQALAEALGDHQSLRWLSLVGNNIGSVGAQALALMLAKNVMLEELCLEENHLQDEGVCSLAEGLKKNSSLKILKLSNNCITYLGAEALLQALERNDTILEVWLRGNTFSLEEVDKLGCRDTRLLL

HEK293 [14] = assay: cells; format: functional, cell-based; conditions: Homo sapiens; remark: listed apart in the source
Streptococcus = assay: Group A Streptococcus viability loss, dose response, counter-screen for streptokinase expression inhibitor project, luminescence, BacTiterGlo (AID 1915); format: functional, organism-based;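 note: potency for reduction of bacterial viability or growth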
HEK293 [15] = assay: NOD2 signaling inhibitors in MDP-stimulated cells, cell-based, uHTS, luminescence (AID 2001); format: functional; conditions: Homo sapiens
HEK293 [16] = assay: cells; conditions: Homo sapiens
[17] = molecular target: T3, Nucleotide-binding oligomerization domain-containing protein 2; assay: NOD2 signaling inhibitors, cell-based, luminescence, uHTS, HEK293 (AID 1566); format: functional
[18] = system: Streptococcus sp. 'group A'; assay: growth inhibition of control SK(-) GAS strain, dose response, counter-screen for streptokinase expression inhibitor project, luminescence, kanamycin, BacTiterGlo, confirmation (AID 1900); format: functional, organism-based
[19] = molecular target: T4, Nucleotide-binding oligomerization domain-containing protein 1 (Homo sapiens, UniProt Q9Y239); assay: NOD1 signaling inhibitors, SAR follow-up, revised (AID 2333); format: functional
T4 sequence (Q9Y239 whole entry): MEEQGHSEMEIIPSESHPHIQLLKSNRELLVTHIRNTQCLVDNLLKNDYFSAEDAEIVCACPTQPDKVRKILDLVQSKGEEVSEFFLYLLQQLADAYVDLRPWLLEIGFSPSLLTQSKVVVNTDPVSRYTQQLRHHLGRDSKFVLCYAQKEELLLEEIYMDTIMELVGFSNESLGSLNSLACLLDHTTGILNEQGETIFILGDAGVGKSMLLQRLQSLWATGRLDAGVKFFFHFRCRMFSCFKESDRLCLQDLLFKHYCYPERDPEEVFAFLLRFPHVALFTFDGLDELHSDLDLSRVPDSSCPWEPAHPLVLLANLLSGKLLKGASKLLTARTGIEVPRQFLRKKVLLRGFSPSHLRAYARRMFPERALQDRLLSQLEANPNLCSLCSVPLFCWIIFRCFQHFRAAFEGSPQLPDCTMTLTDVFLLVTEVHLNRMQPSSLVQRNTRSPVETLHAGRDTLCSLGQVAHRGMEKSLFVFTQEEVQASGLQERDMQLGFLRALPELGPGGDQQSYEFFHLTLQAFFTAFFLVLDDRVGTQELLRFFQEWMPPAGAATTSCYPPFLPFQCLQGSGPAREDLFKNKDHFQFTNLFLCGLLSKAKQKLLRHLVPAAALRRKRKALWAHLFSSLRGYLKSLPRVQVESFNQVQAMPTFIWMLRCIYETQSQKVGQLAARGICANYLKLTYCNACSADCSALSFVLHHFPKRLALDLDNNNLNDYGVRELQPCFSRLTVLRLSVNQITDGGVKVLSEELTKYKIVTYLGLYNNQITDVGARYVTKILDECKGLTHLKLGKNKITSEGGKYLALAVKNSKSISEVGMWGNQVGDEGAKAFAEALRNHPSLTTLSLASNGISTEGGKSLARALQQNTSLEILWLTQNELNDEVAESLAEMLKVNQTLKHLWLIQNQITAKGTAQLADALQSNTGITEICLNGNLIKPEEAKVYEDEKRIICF

Tumor necrosis factor = Tumor necrosis factor (Homo sapiens, UniProt P01375); assay: TNFa-triggered NF-kB activation inhibitors, SAR follow-up, cell-based, revised (AID 2337); format: functional
Tumor necrosis factor, sequence (P01375 whole entry): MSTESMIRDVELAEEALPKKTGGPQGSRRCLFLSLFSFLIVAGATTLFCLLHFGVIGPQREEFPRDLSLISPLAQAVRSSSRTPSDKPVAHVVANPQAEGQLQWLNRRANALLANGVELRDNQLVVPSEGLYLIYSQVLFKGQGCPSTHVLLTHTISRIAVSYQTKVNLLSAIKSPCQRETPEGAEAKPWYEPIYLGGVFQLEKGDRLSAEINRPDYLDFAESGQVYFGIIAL

[20] = molecular target: Mothers against decapentaplegic homolog 3 (Homo sapiens, UniProt P84022); assay: Smad3 binding inhibitors, lysate ELISA, dose response, cell lysate, secondary confirmation, chemiluminescent ELISA, HEK293 lysate (AID 1058); format: functional
Mothers against decapentaplegic homolog 3, sequence (P84022 whole entry): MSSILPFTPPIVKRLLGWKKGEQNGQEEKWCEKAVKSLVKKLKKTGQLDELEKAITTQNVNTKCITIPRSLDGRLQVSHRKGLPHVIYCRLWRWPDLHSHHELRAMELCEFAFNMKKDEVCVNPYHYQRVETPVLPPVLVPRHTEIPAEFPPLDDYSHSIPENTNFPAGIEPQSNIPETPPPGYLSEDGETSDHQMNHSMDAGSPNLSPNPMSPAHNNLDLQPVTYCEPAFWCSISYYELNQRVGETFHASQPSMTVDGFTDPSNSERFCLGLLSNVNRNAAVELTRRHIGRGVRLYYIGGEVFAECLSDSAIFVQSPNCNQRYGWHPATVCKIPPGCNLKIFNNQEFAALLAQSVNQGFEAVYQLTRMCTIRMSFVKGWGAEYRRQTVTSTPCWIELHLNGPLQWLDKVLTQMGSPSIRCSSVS

[21] = molecular target: Transitional endoplasmic reticulum ATPase (Homo sapiens, UniProt P55072); assay: p97 ATPase inhibitors, dose response, biochemical (AID 1534)
Transitional endoplasmic reticulum ATPase (Homo sapiens, UniProt P55072), sequence (P55072 whole entry): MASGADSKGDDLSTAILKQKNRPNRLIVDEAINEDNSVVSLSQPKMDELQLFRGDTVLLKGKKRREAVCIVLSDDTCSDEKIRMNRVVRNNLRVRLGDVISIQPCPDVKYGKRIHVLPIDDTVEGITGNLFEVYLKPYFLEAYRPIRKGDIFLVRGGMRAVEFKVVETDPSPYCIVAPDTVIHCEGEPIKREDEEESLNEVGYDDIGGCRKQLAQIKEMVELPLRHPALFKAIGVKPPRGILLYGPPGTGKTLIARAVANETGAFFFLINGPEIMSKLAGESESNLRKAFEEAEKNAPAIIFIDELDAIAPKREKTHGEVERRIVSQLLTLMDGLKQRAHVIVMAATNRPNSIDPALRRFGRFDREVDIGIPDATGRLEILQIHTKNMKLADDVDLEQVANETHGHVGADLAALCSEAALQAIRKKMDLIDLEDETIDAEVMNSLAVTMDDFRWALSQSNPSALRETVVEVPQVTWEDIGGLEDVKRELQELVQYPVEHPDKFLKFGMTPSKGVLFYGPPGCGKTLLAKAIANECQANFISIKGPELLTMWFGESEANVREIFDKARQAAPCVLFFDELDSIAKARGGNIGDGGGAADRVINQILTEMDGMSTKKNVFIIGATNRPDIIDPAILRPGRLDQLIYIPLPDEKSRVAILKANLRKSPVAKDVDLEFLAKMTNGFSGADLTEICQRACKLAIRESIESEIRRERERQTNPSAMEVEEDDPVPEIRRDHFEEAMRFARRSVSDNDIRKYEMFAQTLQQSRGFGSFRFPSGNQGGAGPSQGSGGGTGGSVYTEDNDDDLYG

[22] = molecular target: Transitional endoplasmic reticulum ATPase (Homo sapiens, UniProt P55072, C522A); assay: C522A mutant p97 ATPase inhibitors, dose response, counter-screen for p97 inhibitor project, biochemical, luminescence (AID 1544)
Transitional endoplasmic reticulum ATPase (Homo sapiens, UniProt P55072, C522A), sequence (P55072 2-806 C522A limits assumed): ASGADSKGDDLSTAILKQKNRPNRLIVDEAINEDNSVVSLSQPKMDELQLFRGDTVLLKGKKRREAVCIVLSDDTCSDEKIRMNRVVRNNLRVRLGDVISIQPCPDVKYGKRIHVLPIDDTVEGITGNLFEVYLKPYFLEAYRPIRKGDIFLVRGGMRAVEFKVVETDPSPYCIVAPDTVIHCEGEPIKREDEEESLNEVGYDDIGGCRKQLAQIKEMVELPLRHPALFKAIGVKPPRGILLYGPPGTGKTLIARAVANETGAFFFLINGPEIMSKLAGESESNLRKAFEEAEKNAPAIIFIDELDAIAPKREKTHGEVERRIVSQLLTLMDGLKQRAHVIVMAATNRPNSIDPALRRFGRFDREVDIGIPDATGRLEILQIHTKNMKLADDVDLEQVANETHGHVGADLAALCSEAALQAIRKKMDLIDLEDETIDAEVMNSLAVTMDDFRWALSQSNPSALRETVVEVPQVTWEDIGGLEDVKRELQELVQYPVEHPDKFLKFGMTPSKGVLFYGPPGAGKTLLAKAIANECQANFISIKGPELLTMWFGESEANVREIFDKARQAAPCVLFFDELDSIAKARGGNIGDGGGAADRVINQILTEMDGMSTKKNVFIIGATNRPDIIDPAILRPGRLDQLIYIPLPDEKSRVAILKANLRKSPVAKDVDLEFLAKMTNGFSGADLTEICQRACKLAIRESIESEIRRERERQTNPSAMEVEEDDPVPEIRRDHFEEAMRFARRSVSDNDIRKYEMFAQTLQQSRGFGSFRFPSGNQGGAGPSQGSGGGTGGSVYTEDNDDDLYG

[23] = molecular target: Eukaryotic translation initiation factor 4E (Mus musculus, UniProt P63073); assay: eIF4E–eIF4G protein interaction inhibitors, dose response, biochemical, TR-FRET (AID 855); format: functional;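 note: potency for disrupting eIF4E binding to eIF4GI seen as loss of FRET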
Eukaryotic translation initiation factor 4E, sequence (P63073 whole entry): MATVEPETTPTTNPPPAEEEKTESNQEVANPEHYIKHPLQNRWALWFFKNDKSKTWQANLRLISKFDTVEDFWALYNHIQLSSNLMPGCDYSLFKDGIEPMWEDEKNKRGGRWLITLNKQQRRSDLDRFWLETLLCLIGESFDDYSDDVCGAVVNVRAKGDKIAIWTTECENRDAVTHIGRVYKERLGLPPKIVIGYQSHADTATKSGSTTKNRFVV

- EC50 [6]: > 260 µM (inactive)
- IC50 (SUMO-activating enzyme [7]): 4.47 µM (active)
- IC50 (SUMO-activating enzyme [8]): 20.9 µM (active)
Compound: N=c1c(S(=O)(=O)c2ccc(Cl)cc2)cc2c(=O)n3ccccc3nc2n1Cc1ccco1

- Absolute IC50 (XBP1) (X-box-binding protein 1): 10 µM
Compound: Cc1cc(C)c2nc(-c3ccccn3)cc(C(=O)Nc3cc(C)on3)c2c1
- Absolute IC50 (CHOP) [9]: 10 µM

- IC50 [20]: < 1.25 µM (not active)
Compound: O=c1cc2oc3cc(O)c(O)cc3c(-c3ccccc3)c-2cc1O

The next lines start with the compound.

Compound: CCCCn1c2c(c(=N)c3ccccc31)CCC2
- IC50 [1]: > 100 µM (inactive)
- IC50 [2]: 3.5 µM (active)
- IC50 [3]: > 80 µM (inactive)
- EC50 [4]: 1.25 µM (active)
- EC50 [5]: > 112 µM (not active)

Compound: CCCCCCCn1c(=O)c(C(=O)Nc2cnccn2)c(O)c2ccccc21
- IC50 (HEK293 [10]): > 20 µM (inactive)
- EC50 (HEK293 [11]): 6.35 µM (active)
- IC50 (HEK293 [12]): > 20 µM (inactive)
- IC50 [13]: 8.05 µM (active)
- IC50 (HEK293 [14]): > 20 µM (inactive)
- EC50 (Streptococcus): 6.65 µM (active)
- IC50 (HEK293 [15]): 6.85 µM (active)
- IC50 (HEK293 [16]): > 20 µM (inactive)
- EC50 [17]: 7.83 µM (active)
- EC50 [18]: 2.88 µM (active)
- IC50 [19]: 5.6 µM (active)
- IC50 (Tumor necrosis factor): 3.18 µM (active)

Compound: CN(C)[C@@H]1C(O)=C(C(N)=O)C(=O)[C@@]2(O)C(O)=C3C(=O)c4c(O)cccc4[C@@](C)(O)[C@H]3[C@H](O)[C@@H]12 [OXYTETRACYCLINE]
- IC50 [21]: > 50 µM (not active)
- IC50 [22]: > 50 µM (not active)
- IC50 [23]: 50 µM (inactive)
